Square brackets hold non-standard residues; d marks the D form. Peptide text beside a SMILES is read from it. * marks the point of attachment. Pro(trans-4-Ph) = O=C(O)[C@@H]1C[C@@H](c2ccccc2)CN1; Bpa = N[C@@H](Cc1ccc(C(=O)c2ccccc2)cc1)C(=O)O; Pro(5R-Ph) = O=C(O)[C@@H]1CC[C@H](c2ccccc2)N1; Benzoyl(2,3-diOH) = O=C(c1cccc(O)c1O)*; 1Nal = N[C@@H](Cc1cccc2ccccc12)C(=O)O; 2Nal = N[C@@H](Cc1ccc2ccccc2c1)C(=O)O; dNMeY = CN[C@H](Cc1ccc(O)cc1)C(=O)O; Tic = O=C(O)[C@@H]1Cc2ccccc2CN1; NMeL = CN[C@@H](CC(C)C)C(=O)O; X9 = O=C(c1ccc(O)c(O)c1O)*; NMeS = CN[C@@H](CO)C(=O)O; Thz = O=C(O)[C@@H]1CSCN1; Aze = O=C(O)[C@@H]1CCN1; X8 = O=C(c1c(O)cccc1O)*

A word on the EC50: it is the concentration giving half of the maximal effect.

The target of one experiment is T1, human Chemokine like receptor 1 (Homo sapiens, UniProt Q99788).
T1 construct: host or cells: U2OS (Tango CMKLR1-bla U2OS)
T1 sequence (Q99788 1-373): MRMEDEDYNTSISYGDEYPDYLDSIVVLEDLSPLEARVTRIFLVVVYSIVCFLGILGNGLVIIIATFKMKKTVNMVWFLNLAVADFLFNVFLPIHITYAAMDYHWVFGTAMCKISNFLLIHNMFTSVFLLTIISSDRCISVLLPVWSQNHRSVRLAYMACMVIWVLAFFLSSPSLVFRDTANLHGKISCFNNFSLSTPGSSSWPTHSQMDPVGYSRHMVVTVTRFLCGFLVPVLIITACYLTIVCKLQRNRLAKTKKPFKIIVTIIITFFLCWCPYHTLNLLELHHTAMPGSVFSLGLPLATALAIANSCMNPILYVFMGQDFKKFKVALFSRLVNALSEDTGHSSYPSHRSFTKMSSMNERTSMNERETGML
Kind of experiment: Activation of Tango CMKLR1-bla U2OS cells (beta-lactamase FRET reporter).
Conditions: not given
The format is cell-based. The protocol:
The polypeptide sequences described above are the polypeptide sequences disclosed in the patent JP2010-229093A of BANYU PHARMA CO LTD: (D-Tyr)-Phe-Leu-Pro-(D-Ser)-Gln-Phe-(D-Ala)-Tic-Ser was used as a positive control (SEQ ID NO: 102).
The activation of the compound on Tango™ CMKLR1-bla U2OS cells (Invitrogen Cat. nos. K1551) was tested.
The activation of each compound in the above experiments on Tango™ CMKLR1-bla U2OS cells was determined as follows:
Day 1: Cell Seeding on Plate
2. The medium was removed, and the cells were washed with DPBS twice, followed by addition of 3 mL of 0.05% trypsin, and placed in a 37° C., 5% CO2 incubator (Thermo Fisher, Waltham, Massachusetts, USA) for 3-5 minutes. After the cells were rounded, 3-5 mL of medium (medium formula: DMEM 90%, Dialyzed FBS 10%, NEAA 0.1 mM, HEPES (pH 7.3) 25 mM, Penicillin 100 U/mL, Streptomycin 100 μg/mL) was added to terminate digestion.
2. The digested cells were transferred to a 15 mL centrifuge tube (430790, Corning), centrifuged at 1000 rpm for 5 minutes (5810R, Eppendorf, Hamburg, Germany), and the supernatant was discarded.
3. 7 mL of medium (DMEM+10% FBS) was added, blowed into a single cell suspension, counted by a cell counter, and adjusted the cell suspension to a desired cell density of 250,000/mL with the medium.
4. The cell suspension was seeded into a 384-well cell plate (Corning 3712) in 40 μL/well to make the number of cells 10000 cells/well, and 32 μL of medium was added to the blank control.
5. The incubation was performed overnight at 37° C. under 5% CO2.
Day 2: Dosing and Testing
1. Preparation of 200× Compound Plate
1.1 The test compound was formulated into a 10 mM working solution in DMSO.
1.2 45 μL of 10 mM test compound was added to the 2nd column of rows A to P in the Echo-384 well plate. The compound was subjected to a 3-fold dilution with Precision (30 μL of DMSO was added to the 3rd to 11th columns; 15 μL of the drug solution was pipetted from the 2nd column to the 3rd column, blown and evenly mixed; then 15 μL of the drug solution was pipetted from the 3rd column to the 4th column, blown and evenly mixed; the drugs was subjected to a 3-fold dilution to obtain 10 concentrations in total). The 1st and 12th columns of the Echo-384 well plate were supplemented with 30 μL of DMSO.
2. Preparation of Intermediate Plate
500 nL, i.e., 0.5 μL of the diluted compound (or DMSO) in the 200× compound plate was transferred into the corresponding position of V-bottom 384-well plate with Echo. 20 μL of medium was added to each well, centrifuged, shaken and evenly mixed. The concentration of the drugs in each well of the 2nd to 11th column of intermediate plate (i.e., 5× compound plate) were shown in following Table 4.
3.1 The cell plate was taken out from the incubator and observed under a microscope. The diluted compound or DMSO in the intermediate plate was added to the cell plate in 10 μL/well in the corresponding cell plate, and 40 μL of medium was pre-filled in each well.
3.2 The cells were incubated at 37° C. under 5% CO2 for 4 hours.
4.1 1 mM CCF4-AM, solution B, Solution C, and Solution D were used to prepare an appropriate amount of 6× detection solution. The LiveBLAzer™-FRET B/G Loading kit (K1095, Thermo Fisher, Waltham, Massachusetts, USA) kit containing CCF-4AM and solutionB, solutionC, and solutionD was also purchased from invitrogen (K1157, Thermo Fisher, Waltham, Massachusetts, USA).
4.2 The cells were observed under a microscope and the cell plate was equilibrated to room temperature.
4.3 6 μL of CCF-4AM dissolved solution A, 60 μL of solution B, 904 μL of solution C and 30 μL of solution D were pipetted in an EP tube, blown, and evenly mixed to obtain a 6× detection solution. The prepared 6× detection solution was pipetted to a 384-well plate in 10 μL/well.
As to `CC(C)C[C@H](NC(=O)[C@H](Cc1ccccc1)NC(=O)[C@H](N)Cc1ccc(O)cc1)C(=O)N1CCC[C@H]1C(=O)N[C@H](CO)C(=O)N[C@@H](CCC(N)=O)C(=O)N[C@@H](Cc1cccc2ccccc12)C(=O)N[C@H](C)C(=O)N1Cc2ccccc2C[C@H]1C(=O)N[C@@H](CO)C(=O)O` [YW-117, (D-Tyr)-Phe-Leu-Pro-(D-Ser)-Gln-1Nal-(D-Ala)-Tic-Ser-OH] (H-[dY]FLP[dS]Q[1Nal][dA][Tic]S-OH), the EC50 was found to be 3.9 nM. As to `CC(C)C[C@H](NC(=O)[C@H](Cc1ccccc1)NC(=O)[C@H](N)Cc1ccc(O)cc1)C(=O)N1CCC[C@H]1C(=O)N[C@H](CO)C(=O)N[C@@H](CCC(N)=O)C(=O)N[C@@H](Cc1ccc2ccccc2c1)C(=O)N[C@H](C)C(=O)N1Cc2ccccc2C[C@H]1C(=O)N[C@@H](CO)C(=O)O` [YW-118, (D-Tyr)-Phe-Leu-Pro-(D-Ser)-Gln-2Nal-(D-Ala)-Tic-Ser-OH] (H-[dY]FLP[dS]Q[2Nal][dA][Tic]S-OH), the 50% effective concentration (EC50) was 6.9 nM.

The same experiment, now with this note: determination by the method of Effect Embodiment 1; read-out: EC50.
As to `CC(C)C[C@H](NC(=O)[C@H](Cc1ccccc1)NC(=O)[C@H](N)Cc1ccc(O)cc1)C(=O)N1CCC[C@H]1C(=O)N[C@H](CO)C(=O)N[C@@H](CCC(N)=O)C(=O)N[C@@H](Cc1ccccc1)C(=O)N[C@H](C)C(=O)N1Cc2ccccc2C[C@H]1C(=O)N(C)[C@@H](CO)C(=O)O` [YW-110, (D-Tyr)-Phe-Leu-Pro-(D-Ser)-Gln-Phe-(D-Ala)-Tic-(NMe-Ser)-OH] (H-[dY]FLP[dS]QF[dA][Tic][NMeS]-OH), the EC50 turned out to be 13 nM. Still for that read-out and setting: with `CC(C)C[C@H](NC(=O)[C@H](Cc1ccccc1)NC(=O)[C@H](N)Cc1ccc(O)cc1)C(=O)N1[C@@H](c2ccccc2)CC[C@H]1C(=O)N[C@H](CO)C(=O)N[C@@H](CCC(N)=O)C(=O)N[C@@H](Cc1ccccc1)C(=O)N[C@H](C)C(=O)N1Cc2ccccc2C[C@H]1C(=O)N[C@@H](CO)C(=O)O` [YW-112, (D-Tyr)-Phe-Leu-Pro(5Ph)-(D-Ser)-Gln-Phe-(D-Ala)-Tic-Ser-OH] (H-[dY]FL[Pro(5R-Ph)][dS]QF[dA][Tic]S-OH) the figure was 170 nM; with `CC(C)C[C@H](NC(=O)[C@H](Cc1ccccc1)NC(=O)[C@H](N)Cc1ccc(O)cc1)C(=O)N1C[C@H](c2ccccc2)C[C@H]1C(=O)N[C@H](CO)C(=O)N[C@@H](CCC(N)=O)C(=O)N[C@@H](Cc1ccccc1)C(=O)N[C@H](C)C(=O)N1Cc2ccccc2C[C@H]1C(=O)N[C@@H](CO)C(=O)O` [YW-113, (D-Tyr)-Phe-Leu-Pro(4-Ph)-(D-Ser)-Gln-Phe-(D-Ala)-Tic-Ser-OH] (H-[dY]FL[Pro(trans-4-Ph)][dS]QF[dA][Tic]S-OH), 8.6 nM; with `CC(C)C[C@H](NC(=O)[C@H](Cc1ccccc1)NC(=O)[C@H](N)Cc1ccc(O)cc1)C(=O)N1CSC[C@H]1C(=O)N[C@H](CO)C(=O)N[C@@H](CCC(N)=O)C(=O)N[C@@H](Cc1ccccc1)C(=O)N[C@H](C)C(=O)N1Cc2ccccc2C[C@H]1C(=O)N[C@@H](CO)C(=O)O` [YW-114, (D-Tyr)-Phe-Leu-Thz-(D-Ser)-Gln-Phe-(D-Ala)-Tic-Ser-OH] (H-[dY]FL[Thz][dS]QF[dA][Tic]S-OH), 5 nM. The same measure, in the same setting: with `CC(C)C[C@H](NC(=O)[C@H](Cc1ccccc1)NC(=O)[C@H](N)Cc1ccc(O)cc1)C(=O)N1CC[C@H]1C(=O)N[C@H](CO)C(=O)N[C@@H](CCC(N)=O)C(=O)N[C@@H](Cc1ccccc1)C(=O)N[C@H](C)C(=O)N1Cc2ccccc2C[C@H]1C(=O)N[C@@H](CO)C(=O)O` [YW-115, (D-Tyr)-Phe-Leu-Aze-(D-Ser)-Gln-Phe-(D-Ala)-Tic-Ser-OH] (H-[dY]FL[Aze][dS]QF[dA][Tic]S-OH) the figure was 190 nM; with `CC(C)C[C@H](NC(=O)[C@H](Cc1ccccc1)NC(=O)[C@H](N)Cc1ccc(O)cc1)C(=O)N1CCC[C@H]1C(=O)N[C@H](CO)C(=O)N[C@@H](CCC(N)=O)C(=O)N[C@@H](Cc1ccc(C(=O)c2ccccc2)cc1)C(=O)N[C@H](C)C(=O)N1Cc2ccccc2C[C@H]1C(=O)N[C@@H](CO)C(=O)O` [YW-119, (D-Tyr)-Phe-Leu-Pro-(D-Ser)-Gln-Bpa-(D-Ala)-Tic-Ser-OH] (H-[dY]FLP[dS]Q[Bpa][dA][Tic]S-OH), 9.9 nM; with `CC(C)C[C@@H](C(=O)N1CSC[C@H]1C(=O)N[C@H](CO)C(=O)N[C@@H](CCC(N)=O)C(=O)N[C@@H](Cc1ccccc1)C(=O)N[C@H](C)C(=O)N1Cc2ccccc2C[C@H]1C(=O)N[C@@H](CO)C(=O)O)N(C)C(=O)[C@H](Cc1ccccc1)NC(=O)[C@H](N)Cc1ccc(O)cc1` [YW-121, (D-Tyr)-Phe-(NMe-Leu)-Thz-(D-Ser)-Gln-Phe-(D-Ala)-Tic-Ser-OH] (H-[dY]F[NMeL][Thz][dS]QF[dA][Tic]S-OH), 0.7 nM.

On to `CN[C@H](Cc1ccc(O)cc1)C(=O)N[C@@H](Cc1ccccc1)C(=O)N(C)[C@@H](CC(C)C)C(=O)N1CSC[C@H]1C(=O)N[C@H](CO)C(=O)N[C@@H](CCC(N)=O)C(=O)N[C@@H](Cc1ccccc1)C(=O)N[C@H](C)C(=O)N1Cc2ccccc2C[C@H]1C(=O)N(C)[C@@H](CO)C(=O)O` [YW-124, (NMe-D-Tyr)-Phe-(NMe-Leu)-Thz-(D-Ser)-Gln-Phe-(D-Ala)-Tic-(NMe-Ser)-OH] (H-[dNMeY]F[NMeL][Thz][dS]QF[dA][Tic][NMeS]-OH), for which the concentration giving a half-maximal response (EC50) came to 1.3 nM.

`CC(C)C[C@H](NC(=O)[C@H](Cc1ccccc1)NC(=O)[C@@H](Cc1ccc(O)cc1)NC(=O)c1cccc(O)c1O)C(=O)N1CCC[C@H]1C(=O)N[C@H](CO)C(=O)N[C@@H](CCC(N)=O)C(=O)N[C@@H](Cc1ccccc1)C(=O)N[C@H](C)C(=O)N1Cc2ccccc2C[C@H]1C(=O)N[C@@H](CO)C(=O)O` [YW-127, 2,3-dihydroxybenzoyl-(D-Tyr)-Phe-Leu-Pro-(D-Ser)-Gln-Phe-(D-Ala)-Tic-Ser-OH] ({Benzoyl(2,3-diOH)}-[dY]FLP[dS]QF[dA][Tic]S-OH): the concentration for a half-maximal effect (EC50) is 10 nM. The same measure, in the same setting: with `CC(C)C[C@H](NC(=O)[C@H](Cc1ccccc1)NC(=O)[C@@H](Cc1ccc(O)cc1)NC(=O)c1c(O)cccc1O)C(=O)N1CCC[C@H]1C(=O)N[C@H](CO)C(=O)N[C@@H](CCC(N)=O)C(=O)N[C@@H](Cc1ccccc1)C(=O)N[C@H](C)C(=O)N1Cc2ccccc2C[C@H]1C(=O)N[C@@H](CO)C(=O)O` [YW-128, 2,6-dihydroxybenzoyl-(D-Tyr)-Phe-Leu-Pro-(D-Ser)-Gln-Phe-(D-Ala)-Tic-Ser-OH] (X8-[dY]FLP[dS]QF[dA][Tic]S-OH) the figure was 20 nM. The same measure, in the same setting: the figure for `CC(C)C[C@H](NC(=O)[C@H](Cc1ccccc1)NC(=O)[C@@H](Cc1ccc(O)cc1)NC(=O)c1ccc(O)c(O)c1O)C(=O)N1CCC[C@H]1C(=O)N[C@H](CO)C(=O)N[C@@H](CCC(N)=O)C(=O)N[C@@H](Cc1ccccc1)C(=O)N[C@H](C)C(=O)N1Cc2ccccc2C[C@H]1C(=O)N[C@@H](CO)C(=O)O` [YW-129, 2,3,4-Trihydroxybenzoyl-(D-Tyr)-Phe-Leu-Pro-(D-Ser)-Gln-Phe-(D-Ala)-Tic-Ser-OH] (X9-[dY]FLP[dS]QF[dA][Tic]S-OH) is 9.1 nM.

The values above are taken from patent US12129312B2, “Peptide compound, application thereof and composition containing same” (priority 2017, dated 2024).
